Test results taken from patent US10238758B2, “Radiolabeled alpha-melanocyte stimulating hormone hybrid peptide for melanoma targeting” (STC.UNM, priority 2011, dated 2019).
Entries after “also recorded” stand apart in the source; their conditions may differ. Positions of bridges follow the written chain, without caps; N, C: chain ends. Non-standard residues stand in square brackets, D forms with d. Residues, ends and D or L forms follow the SMILES beside them.

Tests used:
MC1 receptor [1] = biological target: T1, MC1 receptor (Homo sapiens, UniProt Q01726); conditions: M21 melanoma cells, cited from earlier work
T1 construct: Both MC1 and αvβ3 integrin receptors are over-expressed in M21 melanoma cells [23]; endogenous in cells; host or cells: M21 human melanoma cells

αvβ3 integrin receptor = biological target: T2, αvβ3 integrin receptor (Homo sapiens, UniProt P05106+P06756); conditions: M21 melanoma cells, vs RGD-Lys-(Arg11)CCMSH; cited from earlier work
T2 construct: Both MC1 and αvβ3 integrin receptors are over-expressed in M21 melanoma cells [23]; endogenous in cells; host or cells: M21 human melanoma cells

MC1 receptor [2] = biological target: T3, MC1 receptor (Mus musculus, UniProt Q01727); test: MC1 receptor competitive binding with 125I-(Tyr2)-NDP-MSH in B16/F1 melanoma cells; parameters: species or system murine
T3 construct: host or cells: B16/F1 murine melanoma cells
Source text: Amino acid and resin were purchased from Advanced ChemTech Inc. (Louisville, Ky.) and Novabiochem (San Diego, Calif.). ^125I-Tyr^2-[Nle^4, DPhe^7]-α-MSH {^125I-(Tyr^2)-NDP-MSH} was obtained from PerkinElmer, Inc. (Shelton, Conn.) for MC1 receptor binding assay. ^99mTcO4^− was purchased from Cardinal Health (Albuquerque, N. Mex.) for peptide radiolabeling. All other chemicals used in this study were purchased from Thermo Fisher Scientific (Waltham, Mass.) and used without further purification. B16/F1 murine melanoma cells were obtained from American Type Culture Collection (Manassas, Va.).
The RAD-Lys-(Arg^11)CCMSH was synthesized according to our published procedure, purified by reverse phase-high performance liquid chromatography (RP-HPLC) and characterized by LC-mass spectroscopy. The IC50 value of RAD-Lys-(Arg^11)CCMSH for the MC1 receptor was determined in B16/F1 melanoma cells. Briefly, the B16/F1 cells were harvested and seeded into a 24-well cell culture plate (0.2×10^6 cells/well) and incubated at 37° C. overnight. […] The radioactivities associated with cells were measured in a Wallac 1480 automated gamma counter (PerkinElmer, NJ). The IC50 value of RAD-Lys-(Arg^11)CCMSH was calculated using the Prism software (GraphPad Software, La Jolla, Calif.).

[3] = test system: B16/F1 melanoma-bearing C57 mice; test: Biodistribution in B16/F1 melanoma-bearing C57 mice; format: in vivo
Method: All the animal studies were conducted in compliance with Institutional Animal Care and Use Committee approval. The biodistribution of ^99mTc-RAD-Lys-(Arg^11)CCMSH was determined in B16/F1 melanoma-bearing C57 mice (Harlan, Indianapolis, Ind.). C57 mice were subcutaneously inoculated on the right flank with 1×10^6 B16/F1 cells. Tumor weights reached approximately 0.2 g at 10 days post cell inoculation. Each melanoma-bearing mouse was injected with 0.037 MBq of ^99mTc-RAD-Lys-(Arg^11)CCMSH via the tail vein. Groups of 5 mice were sacrificed at 0.5, 2, 4 and 24 h post-injection, and tumors and organs of interest were harvested, weighed and counted. Blood values were taken as 6.5% of the whole-body weight.
The specificity of tumor uptake was determined at 2 h post-injection by co-injecting ^99mTc-RAD-Lys-(Arg^11)CCMSH with 10 μg (6.1 nmol) of unlabeled NDP-MSH. L-lysine co-injection is effective in decreasing the renal uptake of radiolabeled α-MSH peptides. To determine the effect of L-lysine co-injection on the renal uptake of ^99mTc-RAD-Lys-(Arg^11)CCMSH, a group of 5 mice were injected with a mixture of 0.037 MBq of ^99mTc-RAD-Lys-(Arg^11)CCMSH and 12 mg of L-lysine. The mice were sacrificed at 2 h post-injection, and tumors and organs of interest were harvested, weighed and counted in a gamma counter.
Statistical analysis was performed using the Student's t-test for unpaired data to determine the significance of differences in tumor and kidney uptake between the groups in the biodistribution studies with/without peptide blockade or with/without L-lysine co-injection. Differences at the 95% confidence level (p<0.05) were considered significant.

B16/F1 melanoma cells = test: Cellular internalization and efflux in B16/F1 melanoma cells; format: cell-based, murine; conditions: for activity internalized: 25° C.
Method: RAD-Lys-(Arg^11)CCMSH was radiolabeled with ^99mTc using the method described previously. The radiolabeled peptide was purified to single species by Waters RP-HPLC (Milford, Mass.) on a Grace Vydac C-18 reverse phase analytic column (Deerfield, Ill.) using a 20 min gradient of 16-26% acetonitrile in 20 mM HCl aqueous solution at a flow rate of 1 mL/min. Cellular internalization and efflux of ^99mTc-RAD-Lys-(Arg^11)CCMSH were evaluated in B16/F1 melanoma cells. Briefly, the B16/F1 cells in 24-well cell culture plates were incubated at 25° C. for 20, 40, 60, 90 and 120 min (n=4) in the presence of approximately 200,000 cpm of HPLC purified ^99mTc-RAD-Lys-(Arg^11)CCMSH. After incubation, the reaction medium was aspirated and the cells were rinsed twice with 0.5 mL of ice-cold pH 7.4, 0.2% BSA/0.01 M PBS. Cellular internalization of ^99mTc-RAD-Lys-(Arg^11) CCMSH was assessed by washing the cells with acidic buffer [40 mM sodium acetate (pH 4.5) containing 0.9% NaCl and 0.2% BSA] to remove the membrane-bound radioactivity. The remaining internalized radioactivity was obtained by lysing the cells with 0.5 mL of 1 N NaOH for 5 min. Membrane-bound and internalized ^99mTc activities were counted in a gamma counter. Cellular efflux of ^99mTc-RAD-Lys-(Arg^11)CCMSH was determined by incubating the B16/F1 cells with ^99mTc-RAD-Lys-(Arg^11)CCMSH for 2 h at 25° C., removing non-specific-bound radioactivity with 2×0.5 mL of ice-cold pH 7.4, 0.2% BSA/0.01 M PBS rinse, and monitoring radioactivity released into cell culture medium. At time points of 20, 40, 60, 90 and 120 min, the radioactivities in medium, on cell surface and in cells were separately collected and counted in a gamma counter.

[4] = test system: B16/F1 melanoma-bearing C57 mouse; test: SPECT/CT melanoma imaging in a B16/F1 melanoma-bearing C57 mouse; format: in vivo; conditions: 2 h post-injection
Method: (§1) Approximately 6.7 MBq of ^99mTc-RAD-Lys-(Arg^11)CCMSH was injected in a B16/F1 melanoma-bearing C57 mouse for imaging and urine analysis. The mouse was euthanized at 2 h post-injection for small animal SPECT/CT (Nano-SPECT/CT®, Bioscan) imaging, as well as to collect urine for analyzing the metabolites. The 9-min CT imaging was immediately followed by the whole-body SPECT scan. The SPECT scans of 24 projections were acquired. Reconstructed SPECT and CT data were visualized and co-registered using InVivoScope (Bioscan, Washington D.C.). The collected urine sample was centrifuged at 16,000 g for 5 min before the HPLC analysis. Thereafter, aliquots of the urine were injected into the HPLC. A 20-minute gradient of 16-26% acetonitrile/20 mM HCl with a flow rate of 1 mL/min was used for urine analysis.

[5] = Urinary metabolites by HPLC in a B16/F1 melanoma-bearing C57 mouse; format: in vivo; conditions: 2 h post-injection
Method: as §1

T1 sequence (Q01726 whole entry): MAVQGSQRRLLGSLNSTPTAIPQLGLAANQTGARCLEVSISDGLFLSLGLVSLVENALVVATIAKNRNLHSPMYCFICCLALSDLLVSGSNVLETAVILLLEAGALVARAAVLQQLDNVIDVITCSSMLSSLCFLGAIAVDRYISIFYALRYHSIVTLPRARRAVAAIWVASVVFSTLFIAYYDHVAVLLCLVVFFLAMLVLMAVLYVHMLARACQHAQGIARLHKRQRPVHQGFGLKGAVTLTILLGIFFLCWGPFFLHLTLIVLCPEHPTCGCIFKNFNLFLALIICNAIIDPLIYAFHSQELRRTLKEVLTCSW
T2 sequence (P06756 31-889 limits assumed): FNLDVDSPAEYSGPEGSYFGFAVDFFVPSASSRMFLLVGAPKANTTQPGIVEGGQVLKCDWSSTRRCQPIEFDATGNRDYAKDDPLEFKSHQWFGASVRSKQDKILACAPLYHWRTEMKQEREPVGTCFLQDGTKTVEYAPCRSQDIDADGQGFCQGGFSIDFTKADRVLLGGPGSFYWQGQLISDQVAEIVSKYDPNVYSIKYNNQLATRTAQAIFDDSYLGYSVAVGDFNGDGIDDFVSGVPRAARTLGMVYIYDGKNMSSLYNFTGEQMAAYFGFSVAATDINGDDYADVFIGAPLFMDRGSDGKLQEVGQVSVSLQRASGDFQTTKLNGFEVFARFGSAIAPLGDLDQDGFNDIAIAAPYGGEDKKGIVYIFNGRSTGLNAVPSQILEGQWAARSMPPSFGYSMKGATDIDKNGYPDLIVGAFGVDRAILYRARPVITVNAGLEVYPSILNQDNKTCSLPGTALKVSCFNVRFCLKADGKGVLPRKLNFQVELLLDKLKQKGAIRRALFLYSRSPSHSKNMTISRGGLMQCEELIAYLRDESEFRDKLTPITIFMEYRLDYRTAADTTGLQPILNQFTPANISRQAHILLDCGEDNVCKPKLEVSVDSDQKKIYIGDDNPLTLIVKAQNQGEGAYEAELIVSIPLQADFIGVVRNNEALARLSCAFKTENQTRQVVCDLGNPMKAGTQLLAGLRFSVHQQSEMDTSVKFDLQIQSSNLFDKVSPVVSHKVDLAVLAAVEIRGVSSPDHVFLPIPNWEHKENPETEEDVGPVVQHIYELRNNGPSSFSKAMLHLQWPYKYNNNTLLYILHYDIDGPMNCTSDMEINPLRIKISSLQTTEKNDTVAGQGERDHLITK
T2 sequence (P06756 891-1048 limits assumed): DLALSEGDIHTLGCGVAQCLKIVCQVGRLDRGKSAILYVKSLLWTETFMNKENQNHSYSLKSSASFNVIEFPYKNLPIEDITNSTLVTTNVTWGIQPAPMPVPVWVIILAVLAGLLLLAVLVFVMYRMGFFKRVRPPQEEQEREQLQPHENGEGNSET
T2 sequence (P05106 27-788): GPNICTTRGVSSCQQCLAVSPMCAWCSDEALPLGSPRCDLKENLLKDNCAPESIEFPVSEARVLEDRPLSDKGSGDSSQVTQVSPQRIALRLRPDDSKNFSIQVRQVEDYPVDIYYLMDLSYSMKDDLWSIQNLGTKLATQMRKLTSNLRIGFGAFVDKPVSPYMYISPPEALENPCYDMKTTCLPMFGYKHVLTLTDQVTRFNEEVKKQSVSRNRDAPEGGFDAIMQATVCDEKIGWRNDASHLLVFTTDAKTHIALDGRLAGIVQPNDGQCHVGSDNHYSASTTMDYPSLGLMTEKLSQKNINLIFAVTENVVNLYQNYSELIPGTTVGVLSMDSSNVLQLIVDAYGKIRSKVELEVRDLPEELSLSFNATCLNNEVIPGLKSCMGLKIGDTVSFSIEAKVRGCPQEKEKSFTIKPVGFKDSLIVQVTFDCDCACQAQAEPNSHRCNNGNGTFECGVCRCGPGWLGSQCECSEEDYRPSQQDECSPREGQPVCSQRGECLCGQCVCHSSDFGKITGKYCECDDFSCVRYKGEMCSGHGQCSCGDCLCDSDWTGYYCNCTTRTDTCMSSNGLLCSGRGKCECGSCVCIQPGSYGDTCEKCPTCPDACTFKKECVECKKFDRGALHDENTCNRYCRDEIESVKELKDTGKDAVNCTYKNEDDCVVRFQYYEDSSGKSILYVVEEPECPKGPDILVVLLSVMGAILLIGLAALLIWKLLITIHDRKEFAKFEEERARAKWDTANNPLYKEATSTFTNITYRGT
T3 sequence (Q01727 whole entry): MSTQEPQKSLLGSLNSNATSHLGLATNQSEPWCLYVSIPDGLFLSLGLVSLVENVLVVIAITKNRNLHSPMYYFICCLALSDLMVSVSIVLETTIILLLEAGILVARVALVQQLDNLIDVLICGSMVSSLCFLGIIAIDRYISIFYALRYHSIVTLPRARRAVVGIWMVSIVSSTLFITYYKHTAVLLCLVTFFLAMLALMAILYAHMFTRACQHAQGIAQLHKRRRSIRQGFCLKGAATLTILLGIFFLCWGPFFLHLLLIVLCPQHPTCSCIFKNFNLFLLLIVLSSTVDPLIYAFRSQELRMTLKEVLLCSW

CC(C)[C@H](NC(=O)[C@@H]1CCCN1C(=O)[C@H](CCCNC(=N)N)NC(=O)[C@H](CS)NC(=O)[C@H](Cc1c[nH]c2ccccc12)NC(=O)[C@H](CCCNC(=N)N)NC(=O)[C@@H](Cc1ccccc1)NC(=O)[C@H](Cc1c[nH]cn1)NC(=O)[C@H](CCC(=O)O)NC(=O)[C@H](CS)NC(=O)[C@H](CS)NC(=O)[C@H](CCCCN)NC(=O)[C@@H]1CC(=O)N[C@@H](CCCNC(=N)N)C(=O)N[C@@H](C)C(=O)N[C@@H](CC(=O)O)C(=O)N[C@H](Cc2ccc(O)cc2)C(=O)N1)C(N)=O [RAD-Lys-(Arg^11)CCMSH] (RAD[dY]DKCCEH[dF]RWCRPV-NH2; lactam N-5 (inferred))
increase of MC1 receptor binding affinity by switch from RGD to RAD (MC1 receptor [1]; vs RGD-Lys-(Arg11)CCMSH): 6.7 fold | decrease of αvβ3 integrin receptor binding affinity by switch from RGD to RAD (αvβ3 integrin receptor): 248 fold

CC(C)[C@H](NC(=O)[C@@H]1CCCN1C(=O)[C@H](CCCNC(=N)N)NC(=O)[C@H](CS)NC(=O)[C@H](Cc1c[nH]c2ccccc12)NC(=O)[C@H](CCCNC(=N)N)NC(=O)[C@@H](Cc1ccccc1)NC(=O)[C@H](Cc1c[nH]cn1)NC(=O)[C@H](CCC(=O)O)NC(=O)[C@H](CS)NC(=O)[C@H](CS)NC(=O)[C@H](CCCCN)NC(=O)[C@@H]1CC(=O)N[C@@H](CCCNC(=N)N)C(=O)N[C@@H](C)C(=O)N[C@@H](CC(=O)O)C(=O)N[C@H](Cc2ccc(O)cc2)C(=O)N1)C(N)=O [^99mTc-RAD-Lys-(Arg^11)CCMSH, metal not drawn] (RAD[dY]DKCCEH[dF]RWCRPV-NH2; lactam N-5)
IC50 (MC1 receptor [2]): 0.26 nM | tumor uptake with NDP-MSH co-injection as % of tumor uptake without ([3]; 10 μg (6.1 nmol) non-radiolabeled NDP-MSH co-injection, 2 h post-injection, p<0.01): 7.8% | liver uptake as % of liver uptake of 99mTc-RGD-Lys-(Arg11)CCMSH ([3]; 0.5 h post-injection): 66.2% | renal uptake relative to 99mTc-RGD-Lys-(Arg11)CCMSH ([3]; 0.5 h post-injection): 1.84 times | tumor uptake relative to 99mTc-RGD-Lys-(Arg11)CCMSH ([3]; 0.5 h post-injection): 1.51 times | effect of L-lysine co-injection on tumor uptake ([3]; 2 h post-injection): without affecting the tumor uptake | liver uptake as % of liver uptake of 99mTc-RGD-Lys-(Arg11)CCMSH ([3]; 2 h post-injection): 61.9% | renal uptake relative to 99mTc-RGD-Lys-(Arg11)CCMSH ([3]; 2 h post-injection): 1.39 times | tumor uptake relative to 99mTc-RGD-Lys-(Arg11)CCMSH ([3]; 2 h post-injection): 1.34 times | renal uptake relative to 99mTc-RGD-Lys-(Arg11)CCMSH ([3]; 4 h post-injection): 1.42 times | tumor uptake relative to 99mTc-RGD-Lys-(Arg11)CCMSH ([3]; 4 h post-injection): 1.43 times | liver uptake as % of liver uptake of 99mTc-RGD-Lys-(Arg11)CCMSH ([3]; 24 h post-injection): 72.3% | decrease of renal uptake by L-lysine co-injection ([3]; L-lysine co-injection): 46% | effect of peptide blockade co-injection on renal uptake ([3]; NDP-MSH co-injection): did not reduce the renal uptake | activity internalized (B16/F1 melanoma cells; 20 min post incubation): 59.20±5.10% | cellular internalization and retention, in words (B16/F1 melanoma cells; B16/F1 melanoma cells): rapid cellular internalization and extended cellular retention | activity internalized (B16/F1 melanoma cells; after 2 h incubation): 78.24±1.13% | visualization of melanoma lesions by SPECT/CT [4]: visualized clearly; also recorded: clearly visualized | remained intact in urine [5]: Approximately 82% | transformed to a more lipophilic metabolite ([5]; urine): 18%

RGD-Lys-(Arg^11)CCMSH [cyclic RGD {Arg-Gly-Asp-DTyr-Asp} motif conjugated to [Cys3,4,10, D-Phe7, Arg11]α-MSH3-13 peptide via a lysine linker, reference compound]
IC50 (MC1 receptor [1]; from ref. 23, read-out: MC1 receptor binding affinity): 2 nM
